This note sets out measurements from patent US7034035B2, “Fungicidal mono-, bi-, and tri-cycloheteroalkyl amides and their compositions, methods of use and preparation” (priority 1999, dated 2006).

Assay [1] deals with Rhizoctonia solani (RHIZSO). The assay is described as follows: microbe, parasite or virus in culture. It is filed as cell-based.
A further assay deals with Ustilago maydis (USTIMA). The assay is described as follows: microbe, parasite or virus in culture. Type of assay: cell-based.
Note: test concentration or dose not given here.

`COc1ccnc(C(=O)N[C@H]2CC3CC2C[C@@H]3COCc2cccc(C(F)(F)F)c2)c1O` (stereo partly shown) [Compound 296]: the “RHIZSO in vitro Growth Inhibition” value in assay [1] was “+ (key: +: at least 80% growth inhibition; −: less than 80% growth inhibition)”. Further, in the assay with Ustilago maydis (USTIMA), the “USTIMA in vitro Growth Inhibition” value was “− (key: +: at least 80% growth inhibition; −: less than 80% growth inhibition)”.

Take `O=C(NCc1ccc(Cl)cc1)c1ncccc1O` [Compound 220]: in assay [1], the “RHIZSO in vitro Growth Inhibition” value was “+ (key: +: at least 80% growth inhibition; −: less than 80% growth inhibition)”. Further, the “USTIMA in vitro Growth Inhibition” value with Ustilago maydis (USTIMA) is “+ (key: +: at least 80% growth inhibition; −: less than 80% growth inhibition)”.

As to `CC(=O)OC1CCC(NC(=O)c2ncccc2O)CC1` (stereo not shown) [Compound 209], in assay [1], the “RHIZSO in vitro Growth Inhibition” value is listed as “− (key: +: at least 80% growth inhibition; −: less than 80% growth inhibition)”. The “USTIMA in vitro Growth Inhibition” value in the assay with Ustilago maydis (USTIMA) was “− (key: +: at least 80% growth inhibition; −: less than 80% growth inhibition)”.

Turning to `Cc1cc(C)cc(NC(=O)c2ncccc2O)c1` [Compound 215], the “RHIZSO in vitro Growth Inhibition” value in assay [1] is “− (key: +: at least 80% growth inhibition; −: less than 80% growth inhibition)”. For the same compound, in the assay with Ustilago maydis (USTIMA), the “USTIMA in vitro Growth Inhibition” value is reported as “− (key: +: at least 80% growth inhibition; −: less than 80% growth inhibition)”.

With `COc1ccnc(C(=O)N[C@@H]2CC3CC2[C@@H](C(=O)OCCc2ccccc2)[C@H]3C(=O)OCC(C)C)c1O` (stereo partly shown) [Compound 301], the “RHIZSO in vitro Growth Inhibition” value in assay [1] was “+ (key: +: at least 80% growth inhibition; −: less than 80% growth inhibition)”. The “USTIMA in vitro Growth Inhibition” value in the assay with Ustilago maydis (USTIMA) is recorded as “− (key: +: at least 80% growth inhibition; −: less than 80% growth inhibition)”.

For the compound `COc1cc(NC(=O)c2ncccc2O)cc(OC)c1` [Compound 216], the “RHIZSO in vitro Growth Inhibition” value in assay [1] is “− (key: +: at least 80% growth inhibition; −: less than 80% growth inhibition)”. For the same compound, in the assay with Ustilago maydis (USTIMA), the “USTIMA in vitro Growth Inhibition” value is given as “− (key: +: at least 80% growth inhibition; −: less than 80% growth inhibition)”.

Consider `COc1cccc(CNC(=O)c2ncccc2O)c1` [Compound 225], for which the “RHIZSO in vitro Growth Inhibition” value in assay [1] is recorded as “− (key: +: at least 80% growth inhibition; −: less than 80% growth inhibition)”. For the same compound, in the assay on Ustilago maydis (USTIMA), the “USTIMA in vitro Growth Inhibition” value is “− (key: +: at least 80% growth inhibition; −: less than 80% growth inhibition)”.

On to `COc1ccnc(C(=O)NC2COC(C)C2)c1O` (stereo not shown) [Compound 310], for which, in assay [1], the “RHIZSO in vitro Growth Inhibition” value is “− (key: +: at least 80% growth inhibition; −: less than 80% growth inhibition)”. Moreover, the “USTIMA in vitro Growth Inhibition” value with Ustilago maydis (USTIMA) is reported as “− (key: +: at least 80% growth inhibition; −: less than 80% growth inhibition)”.

Consider `O=C(NCC1CCCCC1)c1ncccc1O` [Compound 202], for which the “RHIZSO in vitro Growth Inhibition” value in assay [1] is listed as “− (key: +: at least 80% growth inhibition; −: less than 80% growth inhibition)”. In the assay with Ustilago maydis (USTIMA), the “USTIMA in vitro Growth Inhibition” value is recorded as “− (key: +: at least 80% growth inhibition; −: less than 80% growth inhibition)”.

As for `O=C(NCc1cccc2ccccc12)c1ncccc1O` [Compound 228], the “RHIZSO in vitro Growth Inhibition” value in assay [1] is recorded as “− (key: +: at least 80% growth inhibition; −: less than 80% growth inhibition)”. Besides, the “USTIMA in vitro Growth Inhibition” value with Ustilago maydis (USTIMA) is reported as “− (key: +: at least 80% growth inhibition; −: less than 80% growth inhibition)”.

As for `COc1ccnc(C(=O)N[C@H]2[C@@H](OC(C)=O)O[C@H](COC(C)=O)[C@@H](OC(C)=O)[C@@H]2OC(C)=O)c1O` [Compound 335], the “RHIZSO in vitro Growth Inhibition” value in assay [1] is on record as “− (key: +: at least 80% growth inhibition; −: less than 80% growth inhibition)”. The “USTIMA in vitro Growth Inhibition” value in the assay with Ustilago maydis (USTIMA) is “− (key: +: at least 80% growth inhibition; −: less than 80% growth inhibition)”.

Regarding `COc1ccnc(C(=O)NC/C=C(\C)CCC=C(C)C)c1O` [Compound 242], the “RHIZSO in vitro Growth Inhibition” value in assay [1] is on record as “+ (key: +: at least 80% growth inhibition; −: less than 80% growth inhibition)”. Further, the “USTIMA in vitro Growth Inhibition” value with Ustilago maydis (USTIMA) is listed as “+ (key: +: at least 80% growth inhibition; −: less than 80% growth inhibition)”.

Regarding `C[C@H](NC(=O)c1ncccc1O)c1cccc2ccccc12` [Compound 232], the “RHIZSO in vitro Growth Inhibition” value in assay [1] is “− (key: +: at least 80% growth inhibition; −: less than 80% growth inhibition)”. Besides, the “USTIMA in vitro Growth Inhibition” value in the assay with Ustilago maydis (USTIMA) is listed as “− (key: +: at least 80% growth inhibition; −: less than 80% growth inhibition)”.

`COc1ccnc(C(=O)NC2C[C@H](C)O[C@@](C)(Cc3ccccc3)C2)c1O` (stereo partly shown) [Compound 312]: the “RHIZSO in vitro Growth Inhibition” value in assay [1] was “− (key: +: at least 80% growth inhibition; −: less than 80% growth inhibition)”. Besides, the “USTIMA in vitro Growth Inhibition” value in the assay on Ustilago maydis (USTIMA) is recorded as “− (key: +: at least 80% growth inhibition; −: less than 80% growth inhibition)”.

On to `COc1cccc(CNC(=O)c2ncccc2O)c1OC` [Compound 227], for which the “RHIZSO in vitro Growth Inhibition” value in assay [1] was “− (key: +: at least 80% growth inhibition; −: less than 80% growth inhibition)”. Further, the “USTIMA in vitro Growth Inhibition” value with Ustilago maydis (USTIMA) is “− (key: +: at least 80% growth inhibition; −: less than 80% growth inhibition)”.

For the compound `COc1ccnc(C(=O)NC2CCC[C@H]3CC(CCC=C(C)C)=CC[C@@H]23)c1O` (stereo partly shown) [Compound 286], the “RHIZSO in vitro Growth Inhibition” value in assay [1] is reported as “+ (key: +: at least 80% growth inhibition; −: less than 80% growth inhibition)”. Also, the “USTIMA in vitro Growth Inhibition” value in the assay with Ustilago maydis (USTIMA) is listed as “− (key: +: at least 80% growth inhibition; −: less than 80% growth inhibition)”.

As for `COc1ccnc(C(=O)NC2CC(C)(C)C(=O)C(C)(C)C2)c1O` [Compound 266], the “RHIZSO in vitro Growth Inhibition” value in assay [1] is on record as “− (key: +: at least 80% growth inhibition; −: less than 80% growth inhibition)”. For the same compound, the “USTIMA in vitro Growth Inhibition” value with Ustilago maydis (USTIMA) is listed as “− (key: +: at least 80% growth inhibition; −: less than 80% growth inhibition)”.

Turning to `COc1ccnc(C(=O)NC2CC(C)(C)C=CC(C)C2C)c1O` (stereo not shown) [Compound 279], the “RHIZSO in vitro Growth Inhibition” value in assay [1] was “− (key: +: at least 80% growth inhibition; −: less than 80% growth inhibition)”. Also, in the assay with Ustilago maydis (USTIMA), the “USTIMA in vitro Growth Inhibition” value was “− (key: +: at least 80% growth inhibition; −: less than 80% growth inhibition)”.

On to `COc1ccnc(C(=O)NC2CC3CCC2C3)c1O` (stereo not shown) [Compound 287], for which, in assay [1], the “RHIZSO in vitro Growth Inhibition” value is on record as “+ (key: +: at least 80% growth inhibition; −: less than 80% growth inhibition)”. Further, the “USTIMA in vitro Growth Inhibition” value with Ustilago maydis (USTIMA) was “− (key: +: at least 80% growth inhibition; −: less than 80% growth inhibition)”.

For `O=C(NCc1ccccc1Cl)c1ncccc1O` [Compound 218], in assay [1], the “RHIZSO in vitro Growth Inhibition” value is “+ (key: +: at least 80% growth inhibition; −: less than 80% growth inhibition)”. Further, the “USTIMA in vitro Growth Inhibition” value in the assay with Ustilago maydis (USTIMA) is recorded as “+ (key: +: at least 80% growth inhibition; −: less than 80% growth inhibition)”.

For the compound `O=C(NC1CCCCCCC1)c1ncccc1O` [Compound 203], the “RHIZSO in vitro Growth Inhibition” value in assay [1] is recorded as “+ (key: +: at least 80% growth inhibition; −: less than 80% growth inhibition)”. The “USTIMA in vitro Growth Inhibition” value in the assay on Ustilago maydis (USTIMA) is “− (key: +: at least 80% growth inhibition; −: less than 80% growth inhibition)”.

On to `COc1ccnc(C(=O)NCC(C)(C)Sc2ncc(C(F)(F)F)cc2Cl)c1O` [Compound 244], for which the “RHIZSO in vitro Growth Inhibition” value in assay [1] is recorded as “− (key: +: at least 80% growth inhibition; −: less than 80% growth inhibition)”. Moreover, the “USTIMA in vitro Growth Inhibition” value in the assay with Ustilago maydis (USTIMA) is on record as “− (key: +: at least 80% growth inhibition; −: less than 80% growth inhibition)”.

Take `O=C(OC1CCC(NC(=O)c2ncccc2O)CC1)c1ccccc1` (stereo not shown) [Compound 211]: in assay [1], the “RHIZSO in vitro Growth Inhibition” value is “− (key: +: at least 80% growth inhibition; −: less than 80% growth inhibition)”. Also, in the assay on Ustilago maydis (USTIMA), the “USTIMA in vitro Growth Inhibition” value is listed as “− (key: +: at least 80% growth inhibition; −: less than 80% growth inhibition)”.

Regarding `COc1ccnc(C(=O)NCCCc2cccnc2)c1O` [Compound 243], the “RHIZSO in vitro Growth Inhibition” value in assay [1] is “− (key: +: at least 80% growth inhibition; −: less than 80% growth inhibition)”. Besides, the “USTIMA in vitro Growth Inhibition” value with Ustilago maydis (USTIMA) was “− (key: +: at least 80% growth inhibition; −: less than 80% growth inhibition)”.

For the compound `COc1ccccc1CNC(=O)c1ncccc1O` [Compound 224], the “RHIZSO in vitro Growth Inhibition” value in assay [1] was “− (key: +: at least 80% growth inhibition; −: less than 80% growth inhibition)”. Further, the “USTIMA in vitro Growth Inhibition” value in the assay on Ustilago maydis (USTIMA) was “− (key: +: at least 80% growth inhibition; −: less than 80% growth inhibition)”.

As for `Cc1cccc(CNC(=O)c2ncccc2O)c1` [Compound 222], in assay [1], the “RHIZSO in vitro Growth Inhibition” value was “− (key: +: at least 80% growth inhibition; −: less than 80% growth inhibition)”. Further, the “USTIMA in vitro Growth Inhibition” value with Ustilago maydis (USTIMA) is “− (key: +: at least 80% growth inhibition; −: less than 80% growth inhibition)”.

In the case of `O=C(NCCc1ccc(Cl)cc1)c1ncccc1O` [Compound 233, N-(2-(4-Chlorophenyl)Ethyl)-3-Hydroxypyridine-2-Carboxamide], the “RHIZSO in vitro Growth Inhibition” value in assay [1] was “− (key: +: at least 80% growth inhibition; −: less than 80% growth inhibition)”. The “USTIMA in vitro Growth Inhibition” value in the assay with Ustilago maydis (USTIMA) was “+ (key: +: at least 80% growth inhibition; −: less than 80% growth inhibition)”.

For `Cc1ccnc(C(=O)NC2CC(C)(C)CC(C)(C)C2)c1O` [Compound 236], the “RHIZSO in vitro Growth Inhibition” value in assay [1] is reported as “− (key: +: at least 80% growth inhibition; −: less than 80% growth inhibition)”. The “USTIMA in vitro Growth Inhibition” value in the assay with Ustilago maydis (USTIMA) is listed as “− (key: +: at least 80% growth inhibition; −: less than 80% growth inhibition)”.

Regarding `O=C(Nc1cccc(Cl)c1)c1ncccc1O` [Compound 212], the “RHIZSO in vitro Growth Inhibition” value in assay [1] was “− (key: +: at least 80% growth inhibition; −: less than 80% growth inhibition)”. Besides, the “USTIMA in vitro Growth Inhibition” value with Ustilago maydis (USTIMA) was “− (key: +: at least 80% growth inhibition; −: less than 80% growth inhibition)”.

As for `COc1ccnc(C(=O)N[C@@H]2CC3CC2[C@H]2COC[C@@H]32)c1O` (stereo partly shown) [Compound 302], the “RHIZSO in vitro Growth Inhibition” value in assay [1] was “− (key: +: at least 80% growth inhibition; −: less than 80% growth inhibition)”. Moreover, in the assay with Ustilago maydis (USTIMA), the “USTIMA in vitro Growth Inhibition” value is “− (key: +: at least 80% growth inhibition; −: less than 80% growth inhibition)”.

Regarding `O=C(Nc1cccc(C(F)(F)F)c1)c1ncccc1O` [Compound 214], the “RHIZSO in vitro Growth Inhibition” value in assay [1] is recorded as “− (key: +: at least 80% growth inhibition; −: less than 80% growth inhibition)”. For the same compound, in the assay with Ustilago maydis (USTIMA), the “USTIMA in vitro Growth Inhibition” value is reported as “− (key: +: at least 80% growth inhibition; −: less than 80% growth inhibition)”.

Turning to `COc1ccnc(C(=O)NC2C[C@H](C)C[C@H](c3ccccn3)C2)c1O` (stereo partly shown) [Compound 259], the “RHIZSO in vitro Growth Inhibition” value in assay [1] is recorded as “− (key: +: at least 80% growth inhibition; −: less than 80% growth inhibition)”. Besides, the “USTIMA in vitro Growth Inhibition” value in the assay on Ustilago maydis (USTIMA) is recorded as “− (key: +: at least 80% growth inhibition; −: less than 80% growth inhibition)”.
